Test results as given in ChEMBL document CHEMBL6121016, “Design, Synthesis, and Biological Evaluation of 1,3,4-Thiadiazole Derivatives as Novel Potent Peptide Deformylase Inhibitors for Combating Drug-Resistant Gram-Positive and -Negative Bacteria” (J Med Chem, 2025).
Converted amounts (≈) assume the structure as drawn.

How the values were obtained:
Format in all cases: functional
Settings in all cases: time 16-18 hrs
Staphylococcus aureus [1] = assay: Antibacterial activity against methicillin-resistant Staphylococcus aureus ATCC 43300 after 16 to 18 hrs by broth microdilution method
Acinetobacter baumannii [2] = assay: Antibacterial activity against drug-resistant Acinetobacter baumannii Bio 53272 after 16 to 18 hrs by broth microdilution method
Escherichia coli = assay: Antibacterial activity against Escherichia coli ATCC 25922 after 16 to 18 hrs by broth microdilution method
Staphylococcus aureus [3] = assay: Antibacterial activity against methicillin-susceptible Staphylococcus aureus ATCC 25923 after 16 to 18 hrs by broth microdilution method
Staphylococcus aureus [4] = assay: Antibacterial activity against methicillin-susceptible Staphylococcus aureus ATCC 29213 after 16 to 18 hrs by broth microdilution method
Staphylococcus aureus [5] = assay: Antibacterial activity against methicillin-resistant Staphylococcus aureus Bio-090770 after 16 to 18 hrs by broth microdilution method
[6] = system: Staphylococcus epidermidis; assay: Antibacterial activity against Staphylococcus epidermidis after 16 to 18 hrs by broth microdilution method
Klebsiella pneumoniae = assay: Antibacterial activity against Klebsiella pneumoniae CICC 21611 after 16 to 18 hrs by broth microdilution method
Acinetobacter baumannii [7] = assay: Antibacterial activity against Acinetobacter baumannii Bio 34235 after 16 to 18 hrs by broth microdilution method
Staphylococcus aureus [8] = assay: Antibacterial activity against methicillin-resistant Staphylococcus aureus ATCC 33591 after 16 to 18 hrs by broth microdilution method
Staphylococcus aureus [9] = assay: Antibacterial activity against methicillin-susceptible Staphylococcus aureus ATCC 13709 after 16 to 18 hrs by broth microdilution method

| Structure (SMILES) | MIC (Staphylococcus aureus [1]) | MIC (Acinetobacter baumannii [2]) | MIC (Escherichia coli) | MIC (Staphylococcus aureus [3]) | MIC (Staphylococcus aureus [4]) | MIC (Staphylococcus aureus [5]) | MIC [6] | MIC (Klebsiella pneumoniae) | MIC (Acinetobacter baumannii [7]) | MIC (Staphylococcus aureus [8]) | MIC (Staphylococcus aureus [9]) |
| --- | --- | --- | --- | --- | --- | --- | --- | --- | --- | --- | --- |
| CCCC[C@H](CN(O)C=O)C(=O)N1CCC[C@H]1c1nnc(C)s1 | 4 µg/mL (≈ 11.7 µM) | 8 µg/mL (≈ 23.5 µM) | 16 µg/mL (≈ 47 µM) | 4 µg/mL (≈ 11.7 µM) | 4 µg/mL (≈ 11.7 µM) | 4 µg/mL (≈ 11.7 µM) | 0.25 µg/mL (≈ 0.734 µM) | > 16 µg/mL | > 16 µg/mL | 1 µg/mL (≈ 2.94 µM) | 4 µg/mL (≈ 11.7 µM) |
| CCCC[C@H](CN(O)C=O)C(=O)N1CCC[C@H]1c1nnc(-c2ccncc2)s1 | 0.5 µg/mL (≈ 1.24 µM) | 32 µg/mL (≈ 79.3 µM) | 128 µg/mL (≈ 317 µM) | 1 µg/mL (≈ 2.48 µM) | 0.5 µg/mL (≈ 1.24 µM) | 1 µg/mL (≈ 2.48 µM) | 0.5 µg/mL (≈ 1.24 µM) | 32 µg/mL (≈ 79.3 µM) | 64 µg/mL (≈ 159 µM) | 0.25 µg/mL (≈ 0.62 µM) | 0.5 µg/mL (≈ 1.24 µM) |
| CCCC[C@H](CN(O)C=O)C(=O)N1CCC[C@H]1c1nnc(-c2ccc(C(C)(C)C)cc2)s1 | 1 µg/mL (≈ 2.18 µM) | > 16 µg/mL | > 16 µg/mL | 4 µg/mL (≈ 8.72 µM) | 2 µg/mL (≈ 4.36 µM) | 4 µg/mL (≈ 8.72 µM) | 4 µg/mL (≈ 8.72 µM) | > 16 µg/mL | > 16 µg/mL | 1 µg/mL (≈ 2.18 µM) | 2 µg/mL (≈ 4.36 µM) |
| CCCC[C@H](CN(O)C=O)C(=O)N1CCC[C@H]1c1nnc(Cc2cccs2)s1 | 1 µg/mL (≈ 2.37 µM) | 16 µg/mL (≈ 37.9 µM) | > 16 µg/mL | 2 µg/mL (≈ 4.73 µM) | 2 µg/mL (≈ 4.73 µM) | 2 µg/mL (≈ 4.73 µM) | 2 µg/mL (≈ 4.73 µM) | > 16 µg/mL | 16 µg/mL (≈ 37.9 µM) | 0.5 µg/mL (≈ 1.18 µM) | 2 µg/mL (≈ 4.73 µM) |
| CCCC[C@H](CN(O)C=O)C(=O)N1CCC[C@H]1c1nnc(-c2ccccc2F)s1 | 0.5 µg/mL (≈ 1.19 µM) | 8 µg/mL (≈ 19 µM) | 16 µg/mL (≈ 38 µM) | 0.5 µg/mL (≈ 1.19 µM) | 1 µg/mL (≈ 2.38 µM) | 1 µg/mL (≈ 2.38 µM) | 2 µg/mL (≈ 4.76 µM) | > 16 µg/mL | 16 µg/mL (≈ 38 µM) | 0.5 µg/mL (≈ 1.19 µM) | 0.5 µg/mL (≈ 1.19 µM) |
| CCCC[C@H](CN(O)C=O)C(=O)N1CCC[C@H]1c1nnc(-c2ccc(F)cn2)s1 | 0.5 µg/mL (≈ 1.19 µM) | 8 µg/mL (≈ 19 µM) | 16 µg/mL (≈ 38 µM) | 2 µg/mL (≈ 4.74 µM) | 1 µg/mL (≈ 2.37 µM) | 2 µg/mL (≈ 4.74 µM) | 2 µg/mL (≈ 4.74 µM) | > 16 µg/mL | 16 µg/mL (≈ 38 µM) | 0.5 µg/mL (≈ 1.19 µM) | 2 µg/mL (≈ 4.74 µM) |
| CCCC[C@H](CN(O)C=O)C(=O)N1CCC[C@H]1c1nnc(-c2ccns2)s1 | 0.5 µg/mL (≈ 1.22 µM) | 16 µg/mL (≈ 39.1 µM) | 64 µg/mL (≈ 156 µM) | 1 µg/mL (≈ 2.44 µM) | 1 µg/mL (≈ 2.44 µM) | 2 µg/mL (≈ 4.88 µM) | 0.5 µg/mL (≈ 1.22 µM) | 16 µg/mL (≈ 39.1 µM) | 32 µg/mL (≈ 78.1 µM) | 0.25 µg/mL (≈ 0.61 µM) | 1 µg/mL (≈ 2.44 µM) |
| CCCC[C@H](CN(O)C=O)C(=O)N1CCC[C@H]1c1nnc(-c2ccccc2OC)s1 | 0.5 µg/mL (≈ 1.16 µM) | 16 µg/mL (≈ 37 µM) | 16 µg/mL (≈ 37 µM) | 1 µg/mL (≈ 2.31 µM) | 0.5 µg/mL (≈ 1.16 µM) | 2 µg/mL (≈ 4.62 µM) | 2 µg/mL (≈ 4.62 µM) | > 16 µg/mL | 16 µg/mL (≈ 37 µM) | 2 µg/mL (≈ 4.62 µM) | 1 µg/mL (≈ 2.31 µM) |
| CCCC[C@H](CN(O)C=O)C(=O)N1CCC[C@H]1c1nnc(-c2ccc([N+](=O)[O-])cc2)s1 | 0.25 µg/mL (≈ 0.559 µM) | 8 µg/mL (≈ 17.9 µM) | > 16 µg/mL | 0.5 µg/mL (≈ 1.12 µM) | 0.5 µg/mL (≈ 1.12 µM) | 1 µg/mL (≈ 2.23 µM) | 1 µg/mL (≈ 2.23 µM) | > 16 µg/mL | > 16 µg/mL | 0.25 µg/mL (≈ 0.559 µM) | 0.5 µg/mL (≈ 1.12 µM) |
| CCCC[C@H](CN(O)C=O)C(=O)N1CCC[C@H]1c1nnc(C2CCCC2)s1 | 0.5 µg/mL (≈ 1.27 µM) | 8 µg/mL (≈ 20.3 µM) | > 16 µg/mL | 1 µg/mL (≈ 2.53 µM) | 2 µg/mL (≈ 5.07 µM) | 2 µg/mL (≈ 5.07 µM) | 1 µg/mL (≈ 2.53 µM) | > 16 µg/mL | > 16 µg/mL | 0.5 µg/mL (≈ 1.27 µM) | 2 µg/mL (≈ 5.07 µM) |
